Results reported in patent US10517294B2, “Dihydrothiophene derivatives as insecticidal compounds” (priority 2012, dated 2019).

Key:
Assay type in all cases: in vivo
[1] = test system: Thrips tabaci; test: Thrips tabaci (onion thrips), sprayed sunflower leaf discs; conditions: foliar, 144 h, application rate 200 ppm, mixed ages on sunflower leaf discs, 6 days after infestation, read-out: control (mortality)
Protocol: (§1) Sunflower leaf discs were placed on agar in 24-well microtiter plates and sprayed with aqueous test solutions prepared from 10′000 ppm DMSO stock solutions. After drying the leaf discs were infested with a thrips population of mixed ages. The samples were assessed for mortality 6 days after infestation.

[2] = test system: Plutella xylostella; test: Plutella xylostella (diamond back moth), artificial diet; conditions: 120 h, application rate 200 ppm, L2 larvae on artificial diet, 5 days after infestation, read-out: control (at least one of mortality, growth inhibition)
Protocol: (§2) 24-well microtiter plates with artificial diet were treated with aqueous test solutions prepared from 10′000 ppm DMSO stock solutions by pipetting. After drying, the plates were infested with L2 larvae (10 to 15 per well). The samples were assessed for mortality and growth inhibition 5 days after infestation. Control of Plutella xyllostella by a test sample is noted when at least one of mortality and growth inhibition is better than the untreated sample.

[3] = test system: Spodoptera littoralis; test: Spodoptera littoralis (Egyptian cotton leaf worm), sprayed cotton leaf discs; conditions: foliar, 72 h, application rate 200 ppm, L1 larvae on cotton leaf discs, 3 days after infestation, read-out: control (at least one of mortality, anti-feedant effect, growth inhibition)
Protocol: Cotton leaf discs were placed on agar in 24-well microtiter plates and sprayed with aqueous test solutions prepared from 10′000 ppm DMSO stock solutions. After drying the leaf discs were infested with five L1 larvae. The samples were assessed for mortality, anti-feedant effect, and growth inhibition 3 days after infestation. Control of Spodoptera littoralis by a test sample is noted when at least one of mortality, anti-feedant effect, and growth inhibition is better than the untreated sample.

[4] = test system: Heliothis virescens; test: Heliothis virescens (tobacco budworm), eggs on artificial diet; conditions: application rate 200 ppm, eggs 0-24 h old on artificial diet, 5 days after infestation, read-out: control (at least one of egg mortality, larval mortality, growth inhibition)
Protocol: Eggs (0-24 h old) were placed in 24-well microtiter plates on artificial diet and treated with aqueous test solutions prepared from 10′000 ppm DMSO stock solutions by pipetting. The samples were assessed for egg mortality, larval mortality and growth inhibition 5 days after infestation. Control of Heliothis virescens by a test sample is noted when at least one of egg mortality, larval mortality and growth inhibition is better than the untreated sample.

[5] = test system: Diabrotica balteata; test: Diabrotica balteata (corn root worm), artificial diet; conditions: 120 h, application rate 200 ppm, L2 larvae on artificial diet, 5 days after infestation, read-out: control (at least one of mortality, growth inhibition)
Protocol: as §2, with “(6” for “(10”, “10” for “15”, “Diabrotica balteata” for “Plutella xyllostella”

[6] = test system: Tetranychus urticae; test: Tetranychus urticae (two-spotted spider mite), sprayed bean leaf discs; conditions: foliar, 192 h, application rate 200 ppm, mixed ages on bean leaf discs, 8 days after infestation, read-out: control (mortality, mobile stages)
Protocol: as §1, with “Bean” for “Sunflower”, “discs” for “discs were placed”, “were” for “and”, “mite” for “thrips”, “(mobile stages) 8” for “6”

[7] = test system: Euschistus heros; test: Euschistus heros (neotropical brown stink bug), sprayed soybean plants; conditions: 120 h, application rate 50 ppm, N2 nymphs on sprayed soybean plants, 5 days after infestation, read-out: control (at least one of mortality, growth inhibition)
Protocol: Two weeks old soybean plants were sprayed in a turn table spray chamber with the diluted spray solutions. After drying 2 soybean seeds were added and plants were infested with 10 N2 nymphs of the neotropical brown stink bug Euschistus heros in plastic test boxes. The samples were assessed for mortality and growth inhibition 5 days after infestation. Control of Euschistus heros by a test sample is noted when at least one of mortality and growth inhibition is better than the untreated sample.

Cc1cc(C2=CSC(c3cc(Cl)cc(Cl)c3)(C(F)(F)F)C2)ccc1C(=O)NC1CCC1 (stereo not shown) [Compound A1, N-cyclobutyl-4-[2-(3,5-dichlorophenyl)-2-(trifluoromethyl)-3H-thiophen-4-yl]-2-methyl-benzamide]
≥ 80%: mortality at 200 ppm [1] | mortality at 200 ppm [2] | percent control (mortality, anti-feedant effect or growth inhibition) at 200 ppm [3] | mortality at 200 ppm [4] | mortality at 200 ppm [5] | mortality at 200 ppm [6] | mortality at 50 ppm [7]

Cc1cc(C2=CSC(c3cc(Cl)cc(Cl)c3)(C(F)(F)F)C2)ccc1C(=O)NCC(F)(F)F (stereo not shown) [Compound A2, 4-[2-(3,5-dichlorophenyl)-2-(trifluoromethyl)-3H-thiophen-4-yl]-2-methyl-N-(2,2,2-trifluoroethyl)benzamide]
≥ 80%: mortality at 200 ppm [1] | mortality at 200 ppm [2] | percent control (mortality, anti-feedant effect or growth inhibition) at 200 ppm [3] | mortality at 200 ppm [4] | mortality at 200 ppm [5] | mortality at 200 ppm [6] | mortality at 50 ppm [7]

Cc1cc(C2=CSC(c3cc(Cl)cc(Cl)c3)(C(F)(F)F)C2)ccc1C(N)=O (stereo not shown) [Compound A6, 4-[2-(3,5-dichlorophenyl)-2-(trifluoromethyl)-3H-thiophen-4-yl]-2-methyl-benzamide]
≥ 80%: mortality at 200 ppm [2] | percent control (mortality, anti-feedant effect or growth inhibition) at 200 ppm [3] | mortality at 200 ppm [4] | mortality at 200 ppm [5]

Cc1cc(C2=CSC(c3cc(Cl)cc(Cl)c3)(C(F)(F)F)C2)ccc1C(=O)NCc1ccccn1 (stereo not shown) [Compound A8, 4-[2-(3,5-dichlorophenyl)-2-(trifluoromethyl)-3H-thiophen-4-yl]-2-methyl-N-(2-pyridylmethyl)benzamide]
≥ 80%: mortality at 200 ppm [1] | mortality at 200 ppm [2] | percent control (mortality, anti-feedant effect or growth inhibition) at 200 ppm [3] | mortality at 200 ppm [4] | mortality at 200 ppm [5] | mortality at 200 ppm [6]

CON/C=N/C(=O)c1ccc(C2=CSC(c3cc(Cl)cc(Cl)c3)(C(F)(F)F)C2)cc1C (stereo not shown) [Compound A10, (NE)-4-[2-(3,5-dichlorophenyl)-2-(trifluoromethyl)-3H-thiophen-4-yl]-N-[(methoxyamino)methylene]-2-methyl-benzamide]
≥ 80%: mortality at 200 ppm [2] | percent control (mortality, anti-feedant effect or growth inhibition) at 200 ppm [3] | mortality at 200 ppm [4] | mortality at 200 ppm [5] | mortality at 200 ppm [6]

Cc1cc(C2=C[S+]([O-])C(c3cc(Cl)cc(Cl)c3)(C(F)(F)F)C2)ccc1C(=O)NCC(F)(F)F (stereo not shown) [Compound B1, 4-[2-(3,5-dichlorophenyl)-1-oxido-2-(trifluoromethyl)-3H-thiophen-1-ium-4-yl]-2-methyl-N-(2,2,2-trifluoroethyl)benzamide]
≥ 80%: mortality at 200 ppm [2] | percent control (mortality, anti-feedant effect or growth inhibition) at 200 ppm [3] | mortality at 200 ppm [4]

Cc1cc(C2=CS(=O)(=O)C(c3cc(Cl)cc(Cl)c3)(C(F)(F)F)C2)ccc1C(=O)NCC(F)(F)F (stereo not shown) [Compound B2, 4-[2-(3,5-dichlorophenyl)-1,1-dioxo-2-(trifluoromethyl)-3H-thiophen-4-yl]-2-methyl-N-(2,2,2-trifluoroethyl)benzamide]
≥ 80%: mortality at 200 ppm [2] | percent control (mortality, anti-feedant effect or growth inhibition) at 200 ppm [3] | mortality at 200 ppm [4] | mortality at 200 ppm [5]

N#Cc1cc(C2=CSC(c3cc(Cl)c(Cl)c(Cl)c3)(C(F)(F)F)C2)ccc1-n1cncn1 (stereo not shown) [Compound C1, 2-(1,2,4-triazol-1-yl)-5-[2-(3,4,5-trichlorophenyl)-2-(trifluoromethyl)-3H-thiophen-4-yl]benzonitrile]
≥ 80%: mortality at 200 ppm [2] | percent control (mortality, anti-feedant effect or growth inhibition) at 200 ppm [3] | mortality at 200 ppm [4] | mortality at 200 ppm [5]
